# Experimental data published in patent publication US5811441A, “Isoxazoline fibrinogen receptor antagonists” (The DuPont Merck Pharmaceutical Company, priority 1997, dated 1998).
# Where a name gives a salt, the structure may show the parent alone.
# Tested on: platelet aggregation (platelet rich plasma (PRP))
# Test: Platelet Aggregation Assay (no esterase), platelet rich plasma
# Type: cell-based
# Details: human platelet rich plasma (PRP), concentration inhibiting platelet aggregation by 50% relative to control
# Method: Platelet Aggregation Assay:
# venous blood was obtained from the arm of a healthy human donor who was drug-free and aspirin-free for at least two weeks prior to blood collection. Blood was collected into 10 mL citrated Vacutainer tubes. The blood was centrifuged for 15 minutes at 150×g at room temperature, and platelet-rich plasma (PRP) was removed. The remaining blood was centrifuged for 15 minutes at 1500×g at room temperature, and platelet-poor plasma (PPP) was removed. Samples were assayed on a aggregometer (PAP-4 Platelet Aggregation Profiler), using PPP as the blank (100% transmittance). […] of PRP was added to each micro test tube, and transmittance was set to 0%. 20 μL of various agonists (ADP, collagen, arachidonate, epinephrine, thrombin) were added to each tube, and the aggregation profiles were plotted (% transmittance versus time). The results are expressed as % inhibition of agonist-induced platelet aggregation. For the IC50 evaluation, the test compounds were added at various concentrations prior to the activation of the platelets.
# Table A below sets forth the antiplatelet activity of representative compounds of the present invention. The indicated compounds were tested for their ability to inhibit platelet aggregation (using platelet rich plasma (PRP)). The IC50 value (the concentration of antagonist which inhibits platelet aggregation by 50% relative to a control lacking the antagonist) is shown. In Table A the IC50 values are expressed as: +++=IC50 of <1 μM; ++=IC50 of 1-50 μM; +=IC50 of 50-100 μM (μM=micromolar).
row,SMILES,IC50 [µM]
1,"Cc1noc(C)c1S(=O)(=O)N[C@@H](CNC(=O)CC1CC(c2ccc(C(=N)N)cc2)=NO1)C(=O)O (stereo partly drawn) [N^2-(3,5-dimethylisoxazole-4-sulfonyl)-N^3-[3-(4-amidinophenyl)isoxazolin-5(R,S)-ylacetyl]-(S)-2,3-diaminopropionateTrifluoroacetate Salt]",< 1
2,"Cc1noc(C)c1S(=O)(=O)N[C@@H](CNC(=O)C[C@H]1CC(c2ccc(C(=N)N)cc2)=NO1)C(=O)O [N^2-(3,5-dimethylisoxazole-4-sulfonyl)-N^3-[3-(4-amidinophenyl)isoxazolin-5(R)-ylacetyl]-(S)-2,3-diaminopropionate Trifluoroacetate Salt]",< 1
3,"Cc1noc(C)c1S(=O)(=O)N[C@@H](CNC(=O)C[C@@H]1CC(c2ccc(C(=N)N)cc2)=NO1)C(=O)O [N^2-(3,5-Dimethylisoxazole-4-sulfonyl)-N^3-[3-(4-amidinophenyl)isoxazolin-5(S)-ylacetyl]-(S)-2,3-diamino-propionate Trifluoroacetate Salt]",< 1
